In PMC5405074, “Receptor-Mediated Melanoma Targeting with Radiolabeled α-Melanocyte-Stimulating Hormone: Relevance of the Net Charge of the Ligand” (Frontiers in Endocrinology, 2017):
“Also recorded” adds a separate entry of the source. Where two headings read alike, the source gives them in different places. Non-standard residues stand in square brackets, D forms with d. Residues, ends and D or L forms follow the SMILES beside them. *: point of attachment. DOTA = O=C(O)CN1CCN(CC(=O)O)CCN(CC(=O)*)CCN(CC(=O)O)CC1; pY = N[C@@H](Cc1ccc(OP(=O)(O)O)cc1)C(=O)O; Nle = CCCC[C@H](N)C(=O)O

Assays:
[1] = parameters: method as in 2 sources, ref 37 = [37]; PMID 9574445; doi:10.3109/08860229809045104; 37 Kok RJ Haas M Moolenaar F de Zeeuw D Meijer DK . Drug delivery to the kidneys and the bladder with the low molecular weight protein lysozyme . Ren Fail ( 1998 ) 20 : 211 – 7 . 10.3109/0886022980904 ||| ref 38 = [38]; PMID 11578896; doi:10.1016/S0969-8051(01)00241-4; 38 Akizawa H Arano Y Mifune M Iwado A Saito Y Mukai T Effect of molecular charges on renal uptake of 111 In-DTPA-conjugated peptides . Nucl Med Biol ( 2001 ) 28 : 761 – 8 . 10.1016/S0969-8051(01)00241; conditions: urinary excretion; cited from earlier work
[2] = tested on: MC1R; conditions: cited from earlier work
[3] = Biodistribution of ^111In-labeled peptides in B16-F1 melanoma-bearing mice; type: in vivo, mouse (B6D2F1); conditions: female, iv, total radioactivity; for tissue to tissue ratio at 24 h / tissue to tissue ratio at 48 h: B6D2F1 (C57BL/6 × DBA/2F1 hybrids), mouse; for tissue to tissue ratio at 24 h / tissue to tissue ratio at 48 h / tissue to tissue ratio at 4 h: 185 kBq, mean tumor uptake divided by mean kidney uptake; for tissue to tissue ratio at 24 h: 24 h postinjection; for tissue to tissue ratio at 48 h: 48 h postinjection; for tissue to tissue ratio at 4 h / tissue uptake at 4 h: B6D2F1, mouse; for tissue to tissue ratio at 4 h: 4 h postinjection; for tissue uptake at 4 h: ^111In-labeled peptide, 185 kBq i.v., mean ± SEM of three experiments, n = 5 animals each
Method: (§1) About 5 × 10^5 B16-F1 cells were implanted subcutaneously to female B6D2F1 mice (C57BL/6 × DBA/2F1 hybrids; breeding pairs obtained from IFFA-CREDO, France). Seven days later, 185 kBq of ^111In-labeled ligand in 200 µL PBS/0.1% BSA were injected intravenously into the lateral tail vein of each mouse. Control mice were injected with a mixture of the tracer and 50 µg α-MSH to determine the non-specific uptake of radioligand. The animals were sacrificed 4, 24, and 48 h postinjection, dissected, and the tissues of interest collected, rinsed of excess blood, and weighed. The radioactivity emitted by each organ was measured in a γ-counter to determine the tissue uptake as percentage of the injected dose (ID) per gram of tissue. The total of injected radioactivity per animal was determined by extrapolation from the counts of a standard collected from the injection solution for each animal. Urine samples were collected at 10, 15, and 20 min and 4 h after injection and kept frozen at −80°C until use. Urine (1 vol) was mixed with methanol (2 vol) to precipitate proteins, and the supernatant was analyzed by RP-HPLC/γ-detection, as described in Ref. ([12]).
(§2) Results are expressed as means ± SEM, unless otherwise stated. The statistical evaluation of data was performed using the one- or two-way ANOVA test. When significant overall effects were obtained by ANOVA, multiple comparisons were made with the Bonferroni correction. P < 0.05 was considered statistically significant. The area under the curve (AUC) was calculated with the GraphPad Prism 6 software for the indicated period of time, using the mean tissue uptake value at each time point.

[4] = tested on: B16-F1 cells; test: Internalization by cultured B16-F1 cells; type: cell-based, mouse
Method: B16-F1 cells were seeded in six-well plates and incubated overnight in MEM at 37°C. For the internalization experiments, MEM was replaced by 1 mL MBM (see above) as internalization buffer. After a 1-h incubation at 37°C, 74 kBq of radioligand (^111In-labeled peptides) was added, and the plates were incubated for different time periods. Non-specific internalization was determined by addition of 50 µL of a 1 µM α-MSH solution to the incubation mixture. After the desired incubation times, the cells were extensively washed with MBM kept at 37°C to remove excess radioligand. Incubation in 2 mL ice-cold acid buffer (acetate-buffered Hank’s balanced salt solution, pH 5) for 10 min allowed dissociation of surface-bound ligand. After collection of the acid buffer fraction, the cells were rinsed once with cold MBM, and the washings were pooled with the acid buffer fraction. The cells were washed again with MBM kept at 37°C, lysed in a 1% Triton X-100 solution, and finally transferred to tubes for quantification. The radioactivity of all collected fractions was measured in a γ-counter. A counting plate underwent the same treatment as the plate incubated for the longest time, but its cells were detached with 0.02% EDTA in PBS instead of being lysed with the Triton X-100 solution. Cells from three wells were collected, counted, and thus allowed for normalization of the results obtained. Results were expressed as percent of the added dose per million cells.
Figure 3 Determination of internalization of [^111In] DOTA-NAP-D-Asp-D-Asp (A) and [^111In]DOTA-Phospho-MSH2-9 (B) by cultured B16-F1 cells exposed to the peptides at 37°C for 0.5, 2, and 3.5 h. Surface-bound radioligand was released by an acid buffer wash, and internalized radioligand was determined by lysing cells with detergent. Results are expressed in percent of the added dose per million cells.

[5] = tested on: B16-F1 tumor-bearing mice; test: Biodistribution of ^111In-labeled peptides in B16-F1 melanoma-bearing mice; type: in vivo, mouse (B6D2F1)
Method: as §1, §2

[6] = cited from earlier work
From the text: Another approach to reduce uptake of radioactivity by the kidneys is coinjection of radiopeptides with basic amino acids. […] This method was first applied for ^111In-labeled DTPA-octreotide ([31], [32]) and ^90Y-labeled DOTA-[Tyr^3]-octreotide ([32], [33]).

[7] = cited from earlier work; remark: listed apart in the source
[8] = kidney, read-out: Kidney uptake

succinylated lysozyme: succinylated lysozyme, compared to the non-succinylated molecule with six amino groups
Excretion compared to non-succinylated molecule (in words) [1]: dramatically increased

[Nle^4, D-Phe^7]-α-MSH [NDP-MSH]
Binding affinity (in words) ([2]; linear analog compared with α-MSH): increased binding affinity

CCCC[C@H](NC(=O)[C@H](Cc1ccc(OP(=O)(O)O)cc1)NC(=O)CNC(=O)CN1CCN(CC(=O)O)CCN(CC(=O)O)CCN(CC(=O)O)CC1)C(=O)N[C@@H](CC(=O)O)C(=O)N[C@@H](Cc1c[nH]cn1)C(=O)N[C@H](Cc1ccccc1)C(=O)N[C@@H](CCCNC(=N)N)C(=O)N[C@@H](Cc1c[nH]c2ccccc12)C(N)=O [[^111In]DOTA-Phospho-MSH2-9, metal not drawn] ({DOTA}-G[pY][Nle]DH[dF]RW-NH2)
tissue to tissue ratio at 24 h [3]: 1.55 | tissue to tissue ratio at 48 h [3]: 1.16 | tissue to tissue ratio at 4 h [3]: 2.75 | tissue uptake at 4 h [3, 8]: 2.68 ± 0.18 %ID/g | tissue uptake at 4 h ([3]; tumor, read-out: Tumor uptake): 7.33 ± 0.47 %ID/g

Ac-Nle-cyclo[Asp-His-D-Phe-Arg-Trp-Lys]-NH2 (sidechain bridge or staple) [melanotan II]
Binding affinity (in words) ([2]; cyclic analog compared with α-MSH): increased binding affinity

CCCC[C@H](NC(C)=O)C(=O)N[C@@H](CC(=O)O)C(=O)N[C@@H](Cc1c[nH]cn1)C(=O)N[C@H](Cc1ccccc1)C(=O)N[C@@H](CCCNC(=N)N)C(=O)N[C@@H](Cc1c[nH]c2ccccc12)C(=O)NCC(=O)N[C@@H](CCCCNC(=O)CN1CCN(CC(=O)O)CCN(CC(=O)O)CCN(CC(=O)O)CC1)C(=O)N[C@H](CC(=O)O)C(=O)N[C@H](CC(=O)O)C(=O)O [[^111In]DOTA-NAP-D-Asp-D-Asp] [metal not drawn] (Ac-[Nle]DH[dF]RWGK(DOTA)[dD][dD]-OH; N-terminus and C-terminus assumed)
Internalization profile (in words) ([4]; 37°C, 0.5, 2 and 3.5 h, 74 kBq radioligand): excellent internalization profiles | Internalization plateau (in words) ([4]; 37°C, 3.5 h): not quite reached | Uptake by other organs (in words) ([5]; 4–48 h): Other organs did not substantially accumulate the radiopeptide | Kidney uptake higher than that of [^111In]DOTA-NAP-amide ([5]; 4 h after injection): 25% | Radioactive load of kidney higher than with the reference peptide ([5]; 24 h after injection): 70%

NCCCC[C@@H](N)C(=O)O [D-Lys]
Effect of coinjection on tumor uptake (in words) [6]: without affecting tumor uptake | Reduction of kidney uptake of radiopeptides by coinjection ([6]; coinjected with ^111In-/^90Y-labeled octreotide peptides): up to 65%

[DOTA-Nle^4,Asp^5,D-Phe^7,Lys^11(Suc)]-α-MSH4-11-carboxylate
Kidney uptake (in words) ([7]; in vivo): reduced kidney uptake | Tumor uptake (in words) ([7]; in vivo): tumor uptake was also affected | Tumor-to-kidney ratio (in words) ([7]; in vivo): even lower than that of the parent molecule

[^111In-DOTA-Nle^4,Asp^5,D-Phe^7,Lys^11(Suc)]-α-MSH4-11-carboxylate
AUC (4–48 h), tumor-to-kidney ([7]; in vivo): 0.62 | Kidney uptake (in words) ([7]; in vivo): lowest kidney uptake | Tumor uptake (in words) ([7]; in vivo): reduced uptake by melanoma tumors | MC1R affinity (in words) [2]: lower MC1R affinity

CCCC[C@H](NC(=O)[C@H](Cc1ccc(OP(=O)(O)O)cc1)NC(=O)CNC(=O)CN1CCN(CC(=O)O)CCN(CC(=O)O)CCN(CC(=O)O)CC1)C(=O)N[C@@H](CC(=O)O)C(=O)N[C@@H](Cc1c[nH]cn1)C(=O)N[C@H](Cc1ccccc1)C(=O)N[C@@H](CCCNC(=N)N)C(=O)N[C@@H](Cc1c[nH]c2ccccc12)C(N)=O [[^111In]DOTA-Phospho-MSH2-9] [metal not drawn] ({DOTA}-G[pY][Nle]DH[dF]RW-NH2)
Effect of coinjection of α-MSH on melanoma uptake (in words) ([5]; 50 µg α-MSH coinjected, data not shown): significantly blocked melanoma uptake | Clearance from the kidney (in words) ([5]; 4–48 h): slightly slower | Uptake by other organs (in words) ([5]; 4–48 h): very low and did not exceed the values found with [^111In]DOTA-NAP-amide | Kidney retention lower than that of [^111In]DOTA-NAP-amide ([5]; 4 h after injection): 44% | Kidney uptake as percentage of that of the reference peptide ([5]; 4 h after injection): 56% | Retention of radioactivity by the tumor ([5]; 24 h postinjection, decreased to % of 4 h value): 40% | Tumor-to-kidney ratio compared with other peptides (in words) ([5]; AUC (4–48 h) or overall comparison): threefold higher; also recorded: most favorable tumor-to-kidney ratio of a linear DOTA-MSH radiopeptide reported to date | Kidney uptake/retention compared with reference (in words) ([5]; in vivo): markedly lower | Tumor uptake compared with reference (in words) ([5]; in vivo, B16-F1 tumors): almost identical with that of [^111In]DOTA-NAP-amide; also recorded: about as high as for the reference compound | Kidney uptake compared with other peptides (in words) ([5]; peptides of net charge −2 to +2, five of the eight peptides from ref 14): slightly lower kidney uptake than [^111In-DOTA-Nle^4,Asp^5,D-Phe^7,Lys^11(Suc)]-α-MSH4-11-carboxylate

CCCC[C@H](NC(C)=O)C(=O)N[C@@H](CC(=O)O)C(=O)N[C@@H](Cc1c[nH]cn1)C(=O)N[C@H](Cc1ccccc1)C(=O)N[C@@H](CCCNC(=N)N)C(=O)N[C@@H](Cc1c[nH]c2ccccc12)C(=O)NCC(=O)N[C@@H](CCCCNC(=O)CN1CCN(CC(=O)O)CCN(CC(=O)O)CCN(CC(=O)O)CC1)C(=O)N[C@H](CC(=O)O)C(=O)N[C@H](CC(=O)O)C(=O)O [[^111In]DOTA-NAP-D-Asp-D-Asp, metal not drawn] (Ac-[Nle]DH[dF]RWGK(DOTA)[dD][dD]-OH; N-terminus and C-terminus assumed)
tissue to tissue ratio at 24 h [3]: 0.15 | tissue to tissue ratio at 48 h [3]: 0.11 | tissue to tissue ratio at 4 h [3]: 0.32 | tissue uptake at 4 h [3, 8]: 5.95 ± 0.85 %ID/g | tissue uptake at 4 h ([3]; tumor, read-out: Tumor uptake): 1.93 ± 0.11 %ID/g

CCCC[C@H](NC(C)=O)C(=O)N[C@@H](CC(=O)O)C(=O)N[C@@H](Cc1c[nH]cn1)C(=O)N[C@H](Cc1ccccc1)C(=O)N[C@@H](CCCNC(=N)N)C(=O)N[C@@H](Cc1c[nH]c2ccccc12)C(=O)NCC(=O)N[C@@H](CCCCNC(=O)CN1CCN(CC(=O)O)CCN(CC(=O)O)CCN(CC(=O)O)CC1)C(N)=O [[^111In]DOTA-NAP-amide, metal not drawn, reference compound]
Metabolite in vivo (in words) ([7]; 4 h after injection, ref Froidevaux and Eberle, unpublished): Lys([^111In]DOTA), a metabolite of internalized [^111In]DOTA-NAP-amide occurring 4 h after injection | tissue to tissue ratio at 24 h [3]: 0.96 | tissue to tissue ratio at 48 h [3]: 0.91 | tissue to tissue ratio at 4 h [3]: 1.63 | tissue uptake at 4 h [3, 8]: 4.77 ± 0.26 %ID/g | tissue uptake at 4 h ([3]; tumor, read-out: Tumor uptake): 7.77 ± 0.35 %ID/g
